The subject of one series is L. monocytogenes 272. Briefly: Chicken soup trial at 8° C. Type of series: cell-based, Listeria monocytogenes. The following applies: chicken soup at 8° C. The text has this:
(§1) A local supermarket brand of cream of chicken soup was used as a model food system. 600 g packs were purchased from the local supermarket. This was a ‘fresh home-made type’ of soup that was stored in the chill cabinet, with a short shelf life. It was chosen because it is a rich, nutritious food system containing a range of food components including meat, dairy and vegetable.
(§2) Ingredients were labelled as: chicken stock (water, duck fat, chicken, salt, flavourings, yeast extracts, pork gelatine, glucose syrup, vegetable concentrate, milk protein, sugar, malto-dextrin, vegetable oil, citric acid, lactose, chicken fat), ilk, chicken (9%), cream (8%), onion, potato, vegetable oil, modified maize starch, wheat flour, lemon juice, salt, white pepper. pH 5.912. Protein: 3.3%; carbohydrate: 4.7%; fat: 7.2%; fibre: 0.2%; sodium: 0.1%
(§3) For the test the soup was mixed 2:1 in water (to facilitate sampling and mixing) and sterilised by autoclaving at 121° C. for 15 minutes. For each experiment the pH of the soup was recorded; this was between pH 5.79-5.88.
For TCS010412/8 (which was incubated at 8° C.), APP batch number APP20010213 (concentration 169 mg APP/ml) was used to prepare tests containing 0, 2000 or 4000 ppm APP. 5 g of filter-sterilised APP stock solution was added to 94 g of soup, mixed and then 1 ml of a diluted inoculum suspension (cells or spores as appropriate) was added to give a test inoculum level of 10^3 cfu/g. The soup mixture was shaken vigorously to ensure homogeneous distribution of the APP and micro-organisms. The tests were tested by viable count and then incubated at 8° C. and tested on a twice-weekly basis.
For TCS010521/8 (incubated at 8° C.), samples were prepared in 27.8 g quantities. 1.5 g of an APP stock solution was added, and the tests inoculated with 0.3 ml of a suitably diluted cell or spore suspension to give a final inoculum of ca. 10^3 cfu/g. APP was tested at 0, 500 and 1000 ppm, and batch number APP20010213 (at 169 mg/ml) was used. The tests were sampled by viable count and then incubated at 8° C. and tested on a twice-weekly basis.

For series [1] the following is noted: cited from earlier work.
The next series has as its system L. monocytogenes. The series is described as follows: Test in milk. In kind it is cell-based, Listeria monocytogenes. As to conditions: 2000 ppm, TMGB010605. As for the experimental part: 8.9 ml samples of UHT milk containing 0.5% glucose and the indicator bromocresol purple (0.01%) were prepared and sterilised by autoclaving. The pH before APP addition was pH 6.65. Appropriate stock solutions of APP batch number APP20010215 (at 138 mg/ml) were prepared and filter sterilised. 1 ml of each was added to the milk to prepare tests containing 0, 1000 and 2000 ppm APP. Tests were then inoculated with 100 μl of diluted overnight broth cultures or spore suspensions to give a final inoculum level of ca. 10^3 cfu/ml. These and uninoculated tests were incubated at 20 and 8° C. and examined daily for visible changes compared to uninoculated control.

For series [2] the following is noted: tests disclosed by Baute et al., Phytochemistry 33 (1993); cited from earlier work.
In another series the test system is Salm Typhimurium S29. Briefly: Chicken soup trial at 8° C. The following applies: chicken soup at 8° C., TCSM010521, APP215. Type of series: cell-based, Salmonella Typhimurium.
Text: as §1, §2, §3
For TCS010521/8 (incubated at 8° C.), samples were prepared in 27.8 g quantities. 1.5 g of an APP stock solution was added, and the tests inoculated with 0.3 ml of a suitably diluted cell or spore suspension to give a final inoculum of ca. 10^3 cfu/g. APP was tested at 0, 500 and 1000 ppm, and batch number APP20010213 (at 169 mg/ml) was used. […]

For a further series, the system named is Ps. fluorescens 3756. Briefly: Chicken soup trial at 20° C. In kind it is cell-based, Pseudomonas fluorescens.
Text: as §1, §2, §3
For TCS010430/20 (incubated at 20° C.) samples were prepared in 18.8 g quantities, to which 1 g of a suitable filter-sterilised APP stock solution was added and an appropriately diluted 0.2 ml inoculum. Great care was again taken to ensure homogeneous distribution of the APP and micro-organisms. This test was sampled by viable count test on a daily basis.

The subject of another series is Ps. fluorescens 327. The series is described as follows: Test in cooked minced chicken slurry. Type of series: cell-based, Pseudomonas fluorescens. As to conditions: 2000 ppm, minced chicken slurry at 8° C. As for the experimental part:
1 kg of minced chicken (mainly lean meat) was purchased from the local butcher. This was mixed with 1 litre of BHI, mixed and dispensed as 100 g samples prior to autoclaving. When still warm, the meat was re-mixed thoroughly. When cooked, the meat was inoculated with 1 ml of 10^5 spores or cells (from an overnight broth), and re-mixed. The samples were then divided into 3×25 g portions, to which 0.5 ml of filter-sterilised APP20010215 was added (as 5% or 10% stock solutions) or water. An initial viable count was taken, and the samples then incubated at 8° C. and tested twice weekly. The pH of the chicken slurry was 6.42.

Setting [3] is: 2000 ppm, TCS010412, APP20010213.
The mark [4] stands for this setting: 4000 ppm, TCS010412, APP20010213.
Where [5] appears, read: 2000 ppm, chicken soup at 20° C., TCSM010430, APP20010213.

Broadly, the half-life is the time needed for the level to fall by half in the phase considered. On to `O=C1CC(CO)OC=C1O` (centres unmarked) [APP, Ascopyrone P], for which the Effect on growth entry in the series on L. monocytogenes 272 (500 ppm, TCSM010521, APP215) was “No effect with 500 ppm”; in the series on L. monocytogenes 272 (1000 ppm, TCSM010521, APP215) it was “No total inhibition”; in the series on Ps. fluorescens 3756 (1000 ppm, chicken soup at 20° C., TCSM010430, APP20010213), “No significant effect with 1000 ppm”; in the series on Ps. fluorescens 327 (pH 6.42, TCC010704) it was “No total inhibition”. For the same molecule, the “Effect on growth rate” value in the series on L. monocytogenes 272 (1000 ppm, TCSM010521, APP215) is on record as “slight reduction”. Further, in the series on L. monocytogenes 272 (setting [3]), the Counts reach entry is listed as “Counts reach <105 with 2000 ppm”. Also, the Counts undetectable after entry in the series on L. monocytogenes 272 (setting [3]) is “Counts undetectable after ca 50 days at 2000 ppm”; in the series with L. monocytogenes 272 (setting [4]) it was “Counts undetectable after 20 days at 4000 ppm”. Also, the “Total inhibition for” value is given as “Total inhibition by 4000 ppm for >60 days” with L. monocytogenes 272 (setting [4]), “Total inhibition by 500 ppm for 25 d” with Salm Typhimurium S29 (500 ppm), “Total inhibition by 1000 ppm for >27 d” in the series with Salm Typhimurium S29 (1000 ppm) and “Total inhibition by 2000 ppm for >42 days (counts” in the series with Ps. fluorescens 3756 (setting [5]). Moreover, the “pH at which stable” value in series [1] (less stable at increasing pH) is 1.5-5.5. In addition, the half-life in series [1] (pH 11-12.5) was 5 h. The Control of growth result in the series on L. monocytogenes (milk at 8° C.) and in the series on L. monocytogenes (milk at 20° C.) was “No control observed” throughout. The “Function as an antibiotic” value in series [2] is on record as “did not function satisfactorily as an antibiotic”. Further, in the series on Ps. fluorescens 3756 (setting [5]), the Counts entry is recorded as “undetectable)”. Further, the “Total inhibition (effect on growth of target organism by 2000 ppm APP)” value in the series with Ps. fluorescens 3756 (Chicken soup at 20° C. pH 5.8) is “Ps. fluorescens”. Besides, the “10^6 reached at” value in the series on Ps. fluorescens 327 (TCC010704, controls 3 d) was 10 d.

Values taken from patent publication US20030203963A1, “Antimicrobial agent” (priority 2001, published 2003).
